Measurements from patent publication US20260176245A1, “MODULATORS OF SORTILIN ACTIVITY” (Vesper Bio ApS, priority 2022, published 2026).
pKd: −log10 of the molar value.

Target: T1, Human (6-His) Sortilin (Homo sapiens, UniProt Q99523)
T1 construct: 6-His; purchased RnD Systems
T1 sequence (Q99523 78-755 limits assumed): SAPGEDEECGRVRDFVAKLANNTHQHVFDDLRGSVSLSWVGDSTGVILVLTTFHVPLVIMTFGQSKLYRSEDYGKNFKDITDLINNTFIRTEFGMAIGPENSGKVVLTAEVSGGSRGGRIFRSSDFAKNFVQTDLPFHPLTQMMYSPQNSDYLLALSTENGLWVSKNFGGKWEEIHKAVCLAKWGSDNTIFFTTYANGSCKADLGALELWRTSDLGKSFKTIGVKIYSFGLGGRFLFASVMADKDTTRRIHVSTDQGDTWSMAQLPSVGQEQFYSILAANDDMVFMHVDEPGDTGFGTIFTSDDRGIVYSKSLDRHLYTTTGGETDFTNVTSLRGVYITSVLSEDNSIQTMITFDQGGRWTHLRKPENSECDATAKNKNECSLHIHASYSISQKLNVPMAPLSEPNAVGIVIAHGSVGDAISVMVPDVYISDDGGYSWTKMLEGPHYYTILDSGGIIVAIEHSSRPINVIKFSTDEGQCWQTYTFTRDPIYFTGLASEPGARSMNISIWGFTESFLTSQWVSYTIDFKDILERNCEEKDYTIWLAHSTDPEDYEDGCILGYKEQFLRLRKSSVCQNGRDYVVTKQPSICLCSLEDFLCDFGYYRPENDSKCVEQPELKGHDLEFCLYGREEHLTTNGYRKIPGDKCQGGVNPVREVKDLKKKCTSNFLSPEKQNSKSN
Experiment: Human Sortilin GCI (Grating-Coupled Interferometry) binding assay
Conditions: Creoptix WAVE-RAPID, single concentration, immobilised Human (6-His) Sortilin, 1:1 kinetic binding model; read-out: h-Sortilin GCI KD
Method: The exemplified compounds of the invention were tested in a Grating-Coupled Interferometry (GCI) Sortilin binding assay. The Equilibrium dissociation constant (KD) is a measure of the propensity of a complex (i.e: a ligand and receptor) to dissociate and is used to describe the affinity of an interaction between the constituents of the complex (i.e: a ligand and receptor). The skilled person will recognise that the lower the KD value, the less of the compound needed to achieve the desired effect, and as a result, the chances of undesirable off-target effects are reduced.
Compound affinity was determined by measuring the association and dissociation of compounds to Human (6-His) Sortilin (RnD Systems) using a Creoptix Wave instrument (Creoptix-Malvern Panalytical). Both Human (6-His) Sortilin immobilisation and compound evaluation were performed in HBS-N running buffer: 10 mM HEPES pH 7.4, 150 mM NaCl, 1% DMSO-Cytiva which was filtered and degassed for 15 minutes before use.
A 4PCH WAVEchip (Creoptix-Malvern Panalytical) was conditioned prior to immobilisation using 0.2×HBS-N running buffer with 0.1 M Borate pH 9.0, 1 M NaCl (Xantec Bioanalytics) injected across all flow cells. A buffer exchange was performed to 1×HBS-N running buffer and Human (6-His) Sortilin was immobilised in pH 5.0 Acetate solution (Cytiva) via amine coupling following EDC/NHS (Cytiva) surface activation and then passivated via injection of 50 mM Tris pH 7.4.
Compounds were tested in ‘WAVE-RAPID’ assays at a single concentration (usually: 1 μM, 10 µM or 100 µM) in time-response format (short pulses of increasing duration) using either ‘Weak-Binders’ (Settings: 400 μl/min flow rate, 40 Hz acquisition rate, 5 seconds association time and 20 seconds dissociation time) or ‘Intermediate Binders’ (Settings: 100 μl/min flow rate, 10 Hz acquisition rate, 25 seconds association time and 300 seconds dissociation time) settings. Which was deemed most appropriate was based upon the affinity and kinetics of the compound tested.
DMSO calibration was performed as per manufacturers requirements by injection of running buffer containing DMSO 0.5% above that of the running buffer DMSO (1.5% in that instance) every 20 cycles. All data was double referenced (blank and reference-channel subtracted) with KD values calculated by fitting to a ‘1:1 kinetic’ binding model using ‘WAVEcontrol’ software (Creoptix—Malvern Panalytical).

pKd | SMILES
5.33 | CC(=O)N[C@@H](C)C(=O)N[C@@](C)(CCC(C)(C)C)C(=O)O [Example 2, (2S)-2-[(2S)-2-acetamidopropanamido]-2,5,5-trimethylhexanoic acid]
5.89 | CC[C@H](C)[C@H](NC(C)=O)C(=O)N[C@@](C)(CCC(C)(C)C)C(=O)O [Example 3, (2S)-2-[(2S,3S)-2-acetamido-3-methylpentanamido]-2,5,5-trimethylhexanoic acid]
5.70 | CC(=O)N[C@@H](Cc1ccccc1)C(=O)N[C@@](C)(CCC(C)(C)C)C(=O)O [Example 4, (2S)-2-[(2S)-2-acetamido-3-phenylpropanamido]-2,5,5-trimethylhexanoic acid]
4.91 | CC(=O)NCC(=O)N[C@@](C)(CCC(C)(C)C)C(=O)O [Example 1, 2-(2-acetamidoacetamido)-2,5,5-trimethylhexanoic acid]
